One assay addresses SARS-CoV-2 3CLpro (Severe acute respiratory syndrome coronavirus 2, UniProt P0DTD1). Briefly: biochemical.
In a further assay the target is MERS-CoV 3CLpro (Middle East respiratory syndrome-related coronavirus, UniProt K9N7C7). Briefly: biochemical.
The next assay concerns the target HCoV-229E 3CLpro (Human coronavirus 229E, UniProt P0C6X1). Briefly: HCoV-229E 3CLpro inhibition assay (FRET). It is filed as biochemical.
The target of another assay is SARS-CoV 3CLpro (Severe acute respiratory syndrome coronavirus, UniProt P0C6X7). Briefly: biochemical.

Here are results for 15 molecules from US20250059171A1 (Hoffmann-La Roche Inc., priority 2021, published 2025).

pIC50: −log10 of the molar value.

Sequence of MERS-CoV 3CLpro (K9N7C7 3248-3553): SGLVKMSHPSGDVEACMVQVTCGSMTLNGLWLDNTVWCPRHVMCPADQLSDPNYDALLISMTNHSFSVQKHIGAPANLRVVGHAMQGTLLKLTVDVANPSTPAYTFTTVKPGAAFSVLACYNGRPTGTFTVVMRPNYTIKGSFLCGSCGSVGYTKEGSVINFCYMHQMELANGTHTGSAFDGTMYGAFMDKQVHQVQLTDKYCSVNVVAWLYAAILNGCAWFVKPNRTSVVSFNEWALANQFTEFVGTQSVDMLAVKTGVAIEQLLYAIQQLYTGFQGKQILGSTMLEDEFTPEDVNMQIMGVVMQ
Sequence of HCoV-229E 3CLpro (P0C6X1 2966-3267): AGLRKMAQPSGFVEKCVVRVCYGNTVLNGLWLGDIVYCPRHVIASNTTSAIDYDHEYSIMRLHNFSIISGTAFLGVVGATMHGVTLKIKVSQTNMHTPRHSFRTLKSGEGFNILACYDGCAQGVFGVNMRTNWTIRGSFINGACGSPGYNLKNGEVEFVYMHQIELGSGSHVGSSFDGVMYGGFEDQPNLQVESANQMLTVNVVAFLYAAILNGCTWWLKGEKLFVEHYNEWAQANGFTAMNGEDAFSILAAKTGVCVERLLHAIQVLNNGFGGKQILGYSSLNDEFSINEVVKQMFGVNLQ

Usually pIC50 stands for the IC50 on a negative log10 scale, so that one unit is a factor of ten. Lower therefore signals a high IC50. Take `CCC(=O)N[C@H](C(=O)N1C[C@@H]2CCC[C@@H]2[C@H]1C(=O)NN(C[C@@H]1CCNC1=O)C(=O)[C@H](F)Cl)C(C)(C)C` [Example 32, N-[(1S)-1-[(3S,3aS,6aR)-3-[[[(2R)-2-chloro-2-fluoro-acetyl]-[[(3S)-2-oxopyrrolidin-3-yl]methyl]amino]carbamoyl]-3,3a,4,5,6,6a-hexahydro-1H-cyclopenta[c]pyrrole-2-carbonyl]-2,2-dimethyl-propyl]propanamide]: the negative-log IC50 (pIC50) on SARS-CoV-2 3CLpro is 8.15; at MERS-CoV 3CLpro, 7.10; on HCoV-229E 3CLpro it was 7.64; at SARS-CoV 3CLpro, 8.00.

Regarding `CC(C)C(=O)N[C@H](C(=O)N1C[C@@H]2CCC[C@@H]2[C@H]1C(=O)NN(C[C@@H]1CCNC1=O)C(=O)[C@H](F)Cl)C(C)(C)C` [Example 33, N-[(1S)-1-[(3S,3aS,6aR)-3-[[[(2R)-2-chloro-2-fluoro-acetyl]-[[(3S)-2-oxopyrrolidin-3-yl]methyl]amino]carbamoyl]-3,3a,4,5,6,6a-hexahydro-1H-cyclopenta[c]pyrrole-2-carbonyl]-2,2-dimethyl-propyl]-2-methyl-propanamide], the pIC50 at SARS-CoV-2 3CLpro is 8.15; on MERS-CoV 3CLpro, 7.10; at HCoV-229E 3CLpro it was 7.57; against SARS-CoV 3CLpro, 8.10.

In the case of `CC(C)(F)C(=O)N[C@H](C(=O)N1C[C@@H]2CCC[C@@H]2[C@H]1C(=O)NN(C[C@@H]1CCNC1=O)C(=O)[C@H](F)Cl)C(C)(C)C` [Example 35, N-[(1S)-1-[(3S,3aS,6aR)-3-[[[(2R)-2-chloro-2-fluoro-acetyl]-[[(3S)-2-oxopyrrolidin-3-yl]methyl]amino]carbamoyl]-3,3a,4,5,6,6a-hexahydro-1H-cyclopenta[c]pyrrole-2-carbonyl]-2,2-dimethyl-propyl]-2-fluoro-2-methyl-propanamide], the negative-log IC50 (pIC50) against SARS-CoV-2 3CLpro was 8.10; against MERS-CoV 3CLpro, 7.22; at HCoV-229E 3CLpro it was 7.64; on SARS-CoV 3CLpro it was 8.10.

Turning to `CC[C@H](C)[C@H](NC(=O)C1CC1)C(=O)N1C[C@@H]2CCC[C@@H]2[C@H]1C(=O)NN(C[C@@H]1CCNC1=O)C(=O)[C@H](F)Cl` [Example 37, N-[(1S,2S)-1-[(3S,3aS,6aR)-3-[[[(2R)-2-chloro-2-fluoro-acetyl]-[[(3S)-2-oxopyrrolidin-3-yl]methyl]amino]carbamoyl]-3,3a,4,5,6,6a-hexahydro-1H-cyclopenta[c]pyrrole-2-carbonyl]-2-methyl-butyl]cyclopropanecarboxamide], the pIC50 against SARS-CoV-2 3CLpro was 8.05; against MERS-CoV 3CLpro, 7.12; on HCoV-229E 3CLpro, 7.54; on SARS-CoV 3CLpro, 7.96.

Take `CCC(=O)N[C@H](C(=O)N1C[C@@H]2CCC[C@@H]2[C@H]1C(=O)NN(C[C@@H]1CCNC1=O)C(=O)[C@H](F)Cl)[C@@H](C)CC` [Example 38, N-[(1S,2S)-1-[(3S,3aS,6aR)-3-[[[(2R)-2-chloro-2-fluoro-acetyl]-[[(3S)-2-oxopyrrolidin-3-yl]methyl]amino]carbamoyl]-3,3a,4,5,6,6a-hexahydro-1H-cyclopenta[c]pyrrole-2-carbonyl]-2-methyl-butyl]propanamide]: the pIC50 at SARS-CoV-2 3CLpro was 8.10; at MERS-CoV 3CLpro, 7.14; on HCoV-229E 3CLpro, 7.54; against SARS-CoV 3CLpro it was 8.00.

On to `CC[C@H](C)[C@H](NC(=O)C(F)F)C(=O)N1C[C@@H]2CCC[C@@H]2[C@H]1C(=O)NN(C[C@@H]1CCNC1=O)C(=O)[C@H](F)Cl` [Example 39, N-[(1S,2S)-1-[(3S,3aS,6aR)-3-[[[(2R)-2-chloro-2-fluoro-acetyl]-[[(3S)-2-oxopyrrolidin-3-yl]methyl]amino]carbamoyl]-3,3a,4,5,6,6a-hexahydro-1H-cyclopenta[c]pyrrole-2-carbonyl]-2-methyl-butyl]-2,2-difluoro-acetamide], for which the pIC50 against SARS-CoV-2 3CLpro was 8.05; on MERS-CoV 3CLpro, 7.15; on HCoV-229E 3CLpro, 7.54; against SARS-CoV 3CLpro it was 7.96.

As to `CC[C@H](C)[C@H](NC(=O)C(C)(F)F)C(=O)N1C[C@@H]2CCC[C@@H]2[C@H]1C(=O)NN(C[C@@H]1CCNC1=O)C(=O)[C@H](F)Cl` [Example 40, N-[(1S,2S)-1-[(3S,3aS,6aR)-3-[[[(2R)-2-chloro-2-fluoro-acetyl]-[[(3S)-2-oxopyrrolidin-3-yl]methyl]amino]carbamoyl]-3,3a,4,5,6,6a-hexahydro-1H-cyclopenta[c]pyrrole-2-carbonyl]-2-methyl-butyl]-2,2-difluoro-propanamide], the pIC50 against SARS-CoV-2 3CLpro was 7.68; at MERS-CoV 3CLpro, 7.30; against HCoV-229E 3CLpro, 7.57; against SARS-CoV 3CLpro, 7.89.

Turning to `CC[C@H](C)[C@H](NC(=O)C(C)(C)F)C(=O)N1C[C@@H]2CCC[C@@H]2[C@H]1C(=O)NN(C[C@@H]1CCNC1=O)C(=O)[C@H](F)Cl` [Example 42, N-[(1S,2S)-1-[(3S,3aS,6aR)-3-[[[(2R)-2-chloro-2-fluoro-acetyl]-[[(3S)-2-oxopyrrolidin-3-yl]methyl]amino]carbamoyl]-3,3a,4,5,6,6a-hexahydro-1H-cyclopenta[c]pyrrole-2-carbonyl]-2-methyl-butyl]-2-fluoro-2-methyl-propanamide], the negative-log IC50 (pIC50) against SARS-CoV-2 3CLpro was 8.15; at MERS-CoV 3CLpro, 7.09; against HCoV-229E 3CLpro, 7.62; against SARS-CoV 3CLpro, 8.05.

`CC[C@H](C)[C@H](NC(=O)C(C)(C)C)C(=O)N1C[C@@H]2CCC[C@@H]2[C@H]1C(=O)NN(C[C@@H]1CCNC1=O)C(=O)[C@H](F)Cl` [Example 44, N-[(1S,2S)-1-[(3S,3aS,6aR)-3-[[[(2R)-2-chloro-2-fluoro-acetyl]-[[(3S)-2-oxopyrrolidin-3-yl]methyl]amino]carbamoyl]-3,3a,4,5,6,6a-hexahydro-1H-cyclopenta[c]pyrrole-2-carbonyl]-2-methyl-butyl]-2,2-dimethyl-propanamide]: the pIC50 against SARS-CoV-2 3CLpro is 8.10; against MERS-CoV 3CLpro it was 7.26; against HCoV-229E 3CLpro, 7.64; against SARS-CoV 3CLpro it was 7.96.

Turning to `CC[C@H](C)[C@H](NC(=O)CC(F)(F)F)C(=O)N1C[C@@H]2CCC[C@@H]2[C@H]1C(=O)NN(C[C@@H]1CCNC1=O)C(=O)[C@H](F)Cl` [Example 45, N-[(1S,2S)-1-[(3S,3aS,6aR)-3-[[[(2R)-2-chloro-2-fluoro-acetyl]-[[(3S)-2-oxopyrrolidin-3-yl]methyl]amino]carbamoyl]-3,3a,4,5,6,6a-hexahydro-1H-cyclopenta[c]pyrrole-2-carbonyl]-2-methyl-butyl]-3,3,3-trifluoro-propanamide], the pIC50 against SARS-CoV-2 3CLpro was 7.72; against MERS-CoV 3CLpro, 6.98; at HCoV-229E 3CLpro, 7.46; against SARS-CoV 3CLpro it was 8.00.

In the case of `CCCC(=O)N[C@H](C(=O)N1C[C@@H]2CCC[C@@H]2[C@H]1C(=O)NN(C[C@@H]1CCNC1=O)C(=O)[C@H](F)Cl)[C@@H](C)CC` [Example 46, N-[(1S,2S)-1-[(3S,3aS,6aR)-3-[[[(2R)-2-chloro-2-fluoro-acetyl]-[[(3S)-2-oxopyrrolidin-3-yl]methyl]amino]carbamoyl]-3,3a,4,5,6,6a-hexahydro-1H-cyclopenta[c]pyrrole-2-carbonyl]-2-methyl-butyl]butanamide], the pIC50 at SARS-CoV-2 3CLpro was 8.10; at MERS-CoV 3CLpro, 6.82; on HCoV-229E 3CLpro, 7.31; on SARS-CoV 3CLpro it was 7.54.

Turning to `CC[C@H](C)[C@H](NC(=O)C(C)C)C(=O)N1C[C@@H]2CCC[C@@H]2[C@H]1C(=O)NN(C[C@@H]1CCNC1=O)C(=O)[C@H](F)Cl` [Example 47, N-[(1S,2S)-1-[(3S,3aS,6aR)-3-[[[(2R)-2-chloro-2-fluoro-acetyl]-[[(3S)-2-oxopyrrolidin-3-yl]methyl]amino]carbamoyl]-3,3a,4,5,6,6a-hexahydro-1H-cyclopenta[c]pyrrole-2-carbonyl]-2-methyl-butyl]-2-methyl-propanamide], the pIC50 at SARS-CoV-2 3CLpro is 8.15; at MERS-CoV 3CLpro it was 7.12; against HCoV-229E 3CLpro it was 7.59; on SARS-CoV 3CLpro, 7.92.

As to `CC[C@H](C)[C@H](NC(=O)C(F)(F)F)C(=O)N1C[C@@H]2CCC[C@@H]2[C@H]1C(=O)NN(C[C@@H]1CCNC1=O)C(=O)[C@H](F)Cl` [Example 48, N-[(1S,2S)-1-[(3S,3aS,6aR)-3-[[[(2R)-2-chloro-2-fluoro-acetyl]-[[(3S)-2-oxopyrrolidin-3-yl]methyl]amino]carbamoyl]-3,3a,4,5,6,6a-hexahydro-1H-cyclopenta[c]pyrrole-2-carbonyl]-2-methyl-butyl]-2,2,2-trifluoro-acetamide], the pIC50 against SARS-CoV-2 3CLpro was 7.92; against MERS-CoV 3CLpro it was 7.25; on HCoV-229E 3CLpro it was 7.66; at SARS-CoV 3CLpro, 7.92.

As for `CC[C@H](C)[C@H](NC(=O)C(Cl)Cl)C(=O)N1C[C@@H]2CCC[C@@H]2[C@H]1C(=O)NN(C[C@@H]1CCNC1=O)C(=O)[C@H](F)Cl` [Example 49, N-[(1S,2S)-1-[(3S,3aS,6aR)-3-[[[(2R)-2-chloro-2-fluoro-acetyl]-[[(3S)-2-oxopyrrolidin-3-yl]methyl]amino]carbamoyl]-3,3a,4,5,6,6a-hexahydro-1H-cyclopenta[c]pyrrole-2-carbonyl]-2-methyl-butyl]-2,2-dichloro-acetamide], the pIC50 at SARS-CoV-2 3CLpro is 8.15; against MERS-CoV 3CLpro, 7.02; at HCoV-229E 3CLpro it was 7.48; on SARS-CoV 3CLpro, 7.89.

For `CC[C@H](C)[C@H](NC(=O)C(F)F)C(=O)N1C[C@H]2[C@@H]([C@H]1C(=O)NN(C[C@@H]1CCNC1=O)C(=O)[C@H](F)Cl)C2(C)C` [Example 51, N-[(1S,2S)-1-[(1R,2S,5S)-2-[[[(2R)-2-chloro-2-fluoro-acetyl]-[[(3S)-2-oxopyrrolidin-3-yl]methyl]amino]carbamoyl]-6,6-dimethyl-3-azabicyclo[3.1.0]hexane-3-carbonyl]-2-methyl-butyl]-2,2-difluoro-acetamide], the pIC50 at SARS-CoV-2 3CLpro is 8.15; against MERS-CoV 3CLpro, 7.23; against HCoV-229E 3CLpro it was 7.68; against SARS-CoV 3CLpro, 8.00.
